This passage reports IC50 and melting point results from US7601716B2, “Pyridopyrazines and derivatives thereof as ALK and c-Met inhibitors” (Cephalon, Inc., priority 2006, dated 2009).

Data set [1] has as its target baculovirus-expressed ALK (Homo sapiens, UniProt Q9UM73). Nature of the data set: ALK Kinase Assay (ELISA/TRF, PLC-γ substrate). Further: 1 µM ATP (Km level). Type of data set: biochemical. The note with it: read-out: ALK Kinase Inhibition (IC50). In a few lines:
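GST-PLC-γ coat 10 μg/mL/TBS; 30 ng/ml ALK, 37° C, 15 min; Eu-PT66 anti-pTyr 1 h 37° C, enhancement, TRF. IC50: % inhib vs log10[cpd], variable-slope sigmoid.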
A general note: ELISA stands for enzyme-linked immunosorbent assay.

Data set [2] deals with T1, c-Met (cytoplasmic domain) (Homo sapiens, UniProt P08581).
T1 construct: Reactions were initiated with 30 ng/mL c-Met (cytoplasmic domain, Invitrogen Corporation #PV3143); purchased Invitrogen Corporation PV3143
Nature of the data set: c-Met Kinase Assay (ELISA/TRF, PLC-γ substrate). Conditions: 3 μM ATP (Km level); read-out: c-Met Kinase Inhibition (IC50). Format: biochemical. In a few lines:
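c-Met cytoplasmic domain (30 ng/mL) phosphorylates plate-coated GST–PLC-γ for 15 min at 37 °C. Phosphotyrosine detected with Eu-labeled PT66 antibody by time-resolved fluorescence. IC50 from variable-slope sigmoidal fit of % inhibition vs log concentration.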

Chain of baculovirus-expressed ALK (Q9UM73 19-1620): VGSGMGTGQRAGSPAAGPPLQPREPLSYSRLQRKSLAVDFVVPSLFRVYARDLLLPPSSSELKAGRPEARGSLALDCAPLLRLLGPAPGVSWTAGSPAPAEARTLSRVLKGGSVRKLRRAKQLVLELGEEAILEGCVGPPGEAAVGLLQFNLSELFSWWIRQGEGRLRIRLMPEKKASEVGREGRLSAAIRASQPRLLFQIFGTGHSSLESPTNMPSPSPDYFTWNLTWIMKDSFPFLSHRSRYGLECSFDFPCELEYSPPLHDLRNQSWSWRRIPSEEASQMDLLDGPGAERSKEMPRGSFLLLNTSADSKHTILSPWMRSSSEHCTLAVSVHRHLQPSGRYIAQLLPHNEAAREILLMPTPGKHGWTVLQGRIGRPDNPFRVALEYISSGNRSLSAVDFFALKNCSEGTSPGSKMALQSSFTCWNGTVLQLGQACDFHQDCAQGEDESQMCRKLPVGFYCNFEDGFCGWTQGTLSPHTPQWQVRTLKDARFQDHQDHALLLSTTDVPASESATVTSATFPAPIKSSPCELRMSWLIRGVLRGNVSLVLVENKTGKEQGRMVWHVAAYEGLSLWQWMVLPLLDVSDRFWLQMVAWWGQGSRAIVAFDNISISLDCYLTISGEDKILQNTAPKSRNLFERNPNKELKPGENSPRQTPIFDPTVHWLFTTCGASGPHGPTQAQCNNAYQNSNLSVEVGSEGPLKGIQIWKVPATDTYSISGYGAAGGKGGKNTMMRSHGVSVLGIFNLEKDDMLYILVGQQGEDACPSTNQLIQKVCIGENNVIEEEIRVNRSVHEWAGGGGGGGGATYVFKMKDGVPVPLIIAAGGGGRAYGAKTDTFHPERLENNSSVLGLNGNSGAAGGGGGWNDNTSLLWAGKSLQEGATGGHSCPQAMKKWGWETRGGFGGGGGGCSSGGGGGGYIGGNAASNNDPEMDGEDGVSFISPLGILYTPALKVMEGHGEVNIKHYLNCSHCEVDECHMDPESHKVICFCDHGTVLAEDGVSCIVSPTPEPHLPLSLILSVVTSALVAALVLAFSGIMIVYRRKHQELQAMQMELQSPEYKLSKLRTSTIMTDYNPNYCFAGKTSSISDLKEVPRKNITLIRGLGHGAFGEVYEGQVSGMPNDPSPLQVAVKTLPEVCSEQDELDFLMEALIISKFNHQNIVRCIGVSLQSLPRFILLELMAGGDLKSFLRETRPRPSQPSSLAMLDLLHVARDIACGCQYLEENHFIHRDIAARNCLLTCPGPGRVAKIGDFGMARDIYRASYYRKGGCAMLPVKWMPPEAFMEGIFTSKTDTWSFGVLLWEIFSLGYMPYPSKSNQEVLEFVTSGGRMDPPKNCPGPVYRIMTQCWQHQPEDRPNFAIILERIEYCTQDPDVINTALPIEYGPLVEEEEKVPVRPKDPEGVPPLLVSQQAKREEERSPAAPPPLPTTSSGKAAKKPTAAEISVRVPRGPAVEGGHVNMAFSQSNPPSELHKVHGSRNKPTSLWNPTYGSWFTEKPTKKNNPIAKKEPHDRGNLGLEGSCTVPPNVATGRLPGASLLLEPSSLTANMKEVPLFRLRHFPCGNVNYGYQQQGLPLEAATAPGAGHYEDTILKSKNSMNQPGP
T1 sequence (P08581 956-1390 limits assumed): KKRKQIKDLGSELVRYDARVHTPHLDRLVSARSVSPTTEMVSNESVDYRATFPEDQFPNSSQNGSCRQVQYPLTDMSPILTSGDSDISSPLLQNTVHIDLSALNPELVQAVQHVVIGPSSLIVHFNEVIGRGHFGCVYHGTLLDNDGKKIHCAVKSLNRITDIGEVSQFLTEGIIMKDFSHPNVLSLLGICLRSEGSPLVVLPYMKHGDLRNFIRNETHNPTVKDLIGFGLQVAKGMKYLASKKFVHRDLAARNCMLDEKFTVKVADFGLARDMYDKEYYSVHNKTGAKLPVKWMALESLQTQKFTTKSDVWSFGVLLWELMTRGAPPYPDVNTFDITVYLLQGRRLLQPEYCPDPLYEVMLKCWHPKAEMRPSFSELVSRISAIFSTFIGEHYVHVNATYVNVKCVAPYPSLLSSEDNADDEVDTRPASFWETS

For the compound `CC1(C)Nc2ncc(I)cc2N(Cc2cc(F)ccc2F)C1=O` [Example 92, 1-(2,5-Difluorobenzyl)-7-iodo-3,3-dimethyl-3,4-dihydro-1H-pyrido[2,3-b]pyrazin-2-one], the melting point was 198 to 201 °C. Also, in data set [1], the IC50 is over 100 µM. The IC50 in data set [2] is over 100 µM.
Compound `O=C(O)c1ccc(-c2cnc3c(c2)N(Cc2ccccc2)C(=O)CN3)cc1` [Example 10, 4-(1-Benzyl-2-oxo-1,2,3,4-tetrahydropyrido[2,3-b]pyrazin-7-yl)benzoic acid] showed a melting point of over 200 °C. In addition, in data set [1], the IC50 lay within 10 to 100 µM. In addition, the IC50 in data set [2] is over 100 µM.
As to `CCOC(=O)c1ccc(-c2cnc3c(c2)N(Cc2c(F)ccc(F)c2Cl)C(=O)CN3)cc1` [Example 5, 4-[1-(2-Chloro-3,6-difluorobenzyl)-2-oxo-1,2,3,4-tetrahydropyrido[2,3-b]pyrazin-7-yl]benzoic acid ethyl ester], the melting point fell in the range of 180 to 182 °C. The IC50 in data set [1] is 1 to 10 µM. In addition, the IC50 in data set [2] is over 100 µM.
`CN1CCN(C(=O)c2ccc(-c3cnc4c(c3)N(Cc3cc(F)ccc3F)CC(C)(C)N4)cc2)CC1` [Example 97, {4-[1-(2,5-Difluorobenzyl)-3,3-dimethyl-1,2,3,4-tetrahydropyrido[2,3-b]pyrazin-7-yl]phenyl}-(4-methylpiperazin-1-yl)methanone] came in with a melting point of 191 to 192 °C. Besides, the IC50 in data set [1] was 10 to 100 µM. Also, the IC50 in data set [2] is over 100 µM.
The compound `Fc1ccc(F)c(CN2CCNc3ncc(-c4ccc(N5CCOCC5)nc4)cc32)c1` [Example 70, 1-(2,5-Difluorobenzyl)-7-(6-morpholin-4-yl-pyridin-3-yl)-1,2,3,4-tetrahydropyrido[2,3-b]pyrazine] gave a melting point of 206 to 207 °C. Moreover, the IC50 in data set [1] lay in the range of 0.1 to 1 µM. Also, the IC50 in data set [2] was 10 to 100 µM.
Consider `FC(F)(F)c1ccc(Cl)c(CN2CCNc3ncc(I)cc32)c1` [Example 119, 1-(2-Chloro-5-trifluoromethylbenzyl)-7-iodo-1,2,3,4-tetrahydropyrido[2,3-b]pyrazine], for which the melting point was in the range of 120 to 125 °C. Besides, in data set [1], the 50% inhibitory concentration (IC50) is over 100 µM. Also, the IC50 in data set [2] was over 100 µM.
`Clc1ccc(Cl)c(CN2CCNc3ncc(-c4ccc(N5CCCC5)nc4)cc32)c1` [Example 166, 1-(2,5-Dichlorobenzyl)-7-(6-pyrrolidin-1-yl-pyridin-3-yl)-1,2,3,4-tetrahydropyrido[2,3-b]pyrazine] had a melting point of over 200 °C. Further, the IC50 in data set [1] was in the range of 0.1 to 1 µM. The IC50 in data set [2] is over 100 µM.
The compound `CC(c1c(F)ccc(F)c1Cl)N1CCNc2ncc(I)cc21` (stereo not drawn) [Example 176, 1-[1-(2-Chloro-3,6-difluorophenyl)ethyl]-7-iodo-1,2,3,4-tetrahydropyrido[2,3-b]pyrazine] registered a melting point of 166 °C. In addition, the IC50 in data set [1] is 1 to 10 µM. For the same compound, the IC50 in data set [2] lay within 10 to 100 µM.
As for `O=C1CNc2ncc(I)cc2N1Cc1cccc(F)c1C(F)(F)F` [Example 178, 1-[3-Fluoro-2-(trifluoromethyl)benzyl]-7-iodo-3,4-dihydro-1H-pyrido[2,3-b]pyrazin-2-one], the melting point is over 200 °C. In addition, the IC50 in data set [1] is over 100 µM. Moreover, in data set [2], the concentration for half-maximal inhibition (IC50) was 10 to 100 µM.
The compound `O=C(c1ccc(-c2cnc3c(c2)N(Cc2cc(Cl)ccc2C(F)(F)F)CCN3)cc1)N1CCN(c2nccs2)CC1` [Example 288, (4-{1-[5-Chloro-2-(trifluoromethyl)benzyl]-1,2,3,4-tetrahydropyrido[2,3-b]pyrazin-7-yl}phenyl)-(4-thiazol-2-yl-piperazin-1-yl)methanone] displayed a melting point of 243 to 244 °C. Moreover, the IC50 in data set [1] was 0.1 to 1 µM. Also, the IC50 in data set [2] fell in the range of 10 to 100 µM.
Regarding `N#Cc1cnc2c(c1)N(Cc1cc(F)ccc1F)CCN2` [Example 77, 1-(2,5-Difluorobenzyl)-1,2,3,4-tetrahydropyrido[2,3-b]pyrazine-7-carbonitrile], the melting point was 204 to 206 °C. Also, the IC50 in data set [1] lay in the range of 1 to 10 µM. Moreover, the IC50 in data set [2] is over 100 µM.
On to `O=C1CNc2ncc(I)cc2N1Cc1ccc(C(F)(F)F)o1` [Example 290, 7-Iodo-1-[5-(trifluoromethyl)furan-2-ylmethyl]-3,4-dihydro-1H-pyrido[2,3-b]pyrazin-2-one], for which the melting point is 189 to 191 °C. Also, the IC50 in data set [1] was in the range of 10 to 100 µM. Further, in data set [2], the IC50 is over 100 µM.
Take `Fc1ccc(F)c(CN2CCNc3ncc(-c4cn[nH]c4)cc32)c1Cl` [Example 192, 1-(2-Chloro-3,6-difluorobenzyl)-7-(1H-pyrazol-4-yl)-1,2,3,4-tetrahydropyrido[2,3-b]pyrazine]: the melting point turned out to be 272 °C. Moreover, the IC50 in data set [1] was under 0.1 µM. Also, the IC50 in data set [2] fell in the range of 0.1 to 1 µM.
For the compound `O=C(c1ccc(-c2cnc3c(c2)N(Cc2cc(F)ccc2F)C(=O)CN3)cc1)N1CCC(N2CCCC2)CC1` [Example 60, 1-(2,5-Difluorobenzyl)-7-[4-(4-(pyrrolidin-1-yl)piperidine-1-carbonyl)phenyl]-3,4-dihydro-1H-pyrido[2,3-b]pyrazin-2-one], the melting point is 186 °C (dec.). Further, in data set [1], the IC50 lay within 0.1 to 1 µM. The IC50 in data set [2] lay in the range of 1 to 10 µM.
For `O=C(c1ccccc1)N1CCNc2ncccc21` [Example 41, (3,4-Dihydro-2H-pyrido[2,3-b]pyrazin-1-yl)phenylmethanone] the same measures were 166 to 168 °C, over 100 µM and over 100 µM.
For the compound `CC1(C)Nc2ncc(-c3ccc(C(=O)N4CCC[C@H]4CN4CCCC4)cc3)cc2N(Cc2cc(F)ccc2F)C1=O` [Example 94, 1-(2,5-Difluorobenzyl)-3,3-dimethyl-7-[4-((S)-2-[(pyrrolidin-1-yl)methyl]pyrrolidine-1-carbonyl)phenyl]-3,4-dihydro-1H-pyrido[2,3-b]pyrazin-2-one], the melting point is 171 to 172 °C. The IC50 in data set [1] fell in the range of 1 to 10 µM. Also, the IC50 in data set [2] lay in the range of 10 to 100 µM.
On to `Ic1cnc2c(c1)N(Cc1ccccc1)CCN2` [Example 33, 1-Benzyl-7-iodo-1,2,3,4-tetrahydropyrido[2,3-b]pyrazine], for which the melting point fell in the range of 147 to 148 °C. Besides, the IC50 in data set [1] was in the range of 10 to 100 µM. Also, in data set [2], the IC50 is over 100 µM.
As for `Clc1cc(-c2cnc3c(c2)N(Cc2c(Cl)cccc2Cl)CCN3)ccn1` [Example 167, 7-(2-Chloropyridin-4-yl)-1-(2,6-dichlorobenzyl)-1,2,3,4-tetrahydropyrido[2,3-b]pyrazine], the melting point amounted to 194 °C. In addition, the IC50 in data set [1] lay within 0.1 to 1 µM. Besides, the IC50 in data set [2] was in the range of 10 to 100 µM.
Regarding `O=C(O)c1ccc(-c2cnc3c(c2)N(Cc2cc(F)ccc2F)C(=O)CN3)cc1` [Example 56, 4-[1-(2,5-Difluorobenzyl)-2-oxo-1,2,3,4-tetrahydropyrido[2,3-b]pyrazin-7-yl]benzoic acid], the melting point is over 300 °C. Also, the IC50 in data set [1] was 1 to 10 µM. The IC50 in data set [2] fell in the range of 10 to 100 µM.
The compound `O=C1CCNc2nc(Br)ccc21` [Example 266, 7-bromo-2,3-dihydro-1H-[1,8]naphthyridin-4-one] had a melting point of 196 to 197 °C. Besides, the IC50 in data set [1] was over 100 µM. In addition, the IC50 in data set [2] is over 100 µM.
Take `CCOC(=O)c1ccc(-c2cnc3c(c2)N(Cc2c(Cl)cccc2Cl)C(=O)CN3)cc1` [Example 139, 4-[1-(2,6-Dichlorobenzyl)-2-oxo-1,2,3,4-tetrahydropyrido[2,3-b]pyrazin-7-yl]benzoic acid ethyl ester]: the melting point was determined as 226 °C. The IC50 in data set [1] is 10 to 100 µM. Besides, in data set [2], the IC50 was 10 to 100 µM.
Regarding `CN1CCN(c2ccc(-c3cnc4c(c3)N(S(=O)(=O)c3ccccc3Cl)CCN4)cn2)CC1` [Example 126, 1-(2-Chlorobenzenesulfonyl)-7-[6-(4-methylpiperazin-1-yl)pyridin-3-yl]-1,2,3,4 tetrahydropyrido[2,3-b]pyrazine], the melting point is 164 to 165 °C. Further, the IC50 in data set [1] lay in the range of 0.1 to 1 µM. In data set [2], the IC50 lay within 1 to 10 µM.
As to `O=C(c1ccc(-c2cnc3c(c2)N(Cc2c(Cl)cccc2Cl)C(=O)CN3)cc1)N1CCC(N2CCCC2)CC1` [Example 161, 1-(2,6-Dichlorobenzyl)-7-[4-(4-(pyrrolidin-1-yl)piperidine-1-carbonyl)phenyl]-3,4-dihydro-1H-pyrido[2,3-b]pyrazin-2-one], the melting point was 199 °C. In addition, the half-maximal inhibitory concentration (IC50) in data set [1] is 0.1 to 1 µM. In addition, the IC50 in data set [2] was in the range of 0.1 to 1 µM.
In turn, `CC1(C)CN(Cc2cc(F)ccc2F)c2cc(I)cnc2N1` [Example 93, 1-(2,5-Difluorobenzyl)-7-iodo-3,3-dimethyl-1,2,3,4-tetrahydropyrido[2,3-b]pyrazine] showed a melting point of 168 to 169 °C. The IC50 in data set [1] was over 100 µM. In addition, the IC50 in data set [2] was over 100 µM.
`O=C(O)c1cncc(-c2cnc3c(c2)N(Cc2cc(F)ccc2F)CCN3)c1` [Example 74, 5-[1-(2,5-Difluorobenzyl)-1,2,3,4-tetrahydropyrido[2,3-b]pyrazin-7-yl]-nicotinic acid] registered a melting point of 255 to 260 °C. Moreover, the IC50 in data set [1] was in the range of 10 to 100 µM. Also, in data set [2], the IC50 is 10 to 100 µM.
Regarding `CN1CCN(c2ccc(-c3cnc4c(c3)NCCN4)cn2)CC1` [Example 109, 7-[6-(4-Methylpiperazin-1-yl)pyridin-3-yl]-1,2,3,4-tetrahydropyrido[2,3-b]pyrazine], the melting point was 225 °C (dec.). In addition, the IC50 in data set [1] lay within 10 to 100 µM. Also, the IC50 in data set [2] was over 100 µM.

Broadly, the IC50 is the midpoint of a concentration-inhibition curve. In general, melting point refers to the temperature of the solid-liquid transition.
